From patent publication US20130029970A1 (priority 2009, published 2013) come the findings set out here.

Read-outs that look alike come from different tables or passages of the source.

One assay concerns the target T1, human CB1 receptors (Homo sapiens, UniProt P21554).
T1 construct: (cDNA clone) CNR01L000
Kind of assay: cAMP assay in HEK-293 cells, hCB1 agonist. The assay is classed as cell-based. A digest of the protocol: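 Agonist EC50 taken as concentration giving half inhibition of forskolin-driven cAMP, normalized to forskolin maximum, from sigmoidal curves. Whole HEK-293 cells stably expressing hCB1, in HEPES/BSA-containing HBSS, exposed 30 min at 37° C. to compound with forskolin (90 uM in 3× dilution); cAMP read after lysis.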
A general note: cAMP levels reflect the balance of adenylyl cyclase and phosphodiesterase activity.

Another assay has as its target T2, human CB2 receptors (Homo sapiens, UniProt P34972).
T2 construct: (cDNA clone) CNR0200000
Kind of assay: cAMP assay in HEK-293 cells, hCB2 agonist. The assay is classed as cell-based. In a few lines:
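Stable hCB2 HEK-293 cells in HBSS/10 mM HEPES/0.1% fatty-acid-free BSA incubated 30 min at 37° C with compound; forskolin 90 uM in 3× compound mix.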

A further assay deals with T3, human CB2 (hCB2) (Homo sapiens, UniProt P34972).
T3 construct: (cDNA clone) CNR0200000
T3 sequence (P34972 whole entry): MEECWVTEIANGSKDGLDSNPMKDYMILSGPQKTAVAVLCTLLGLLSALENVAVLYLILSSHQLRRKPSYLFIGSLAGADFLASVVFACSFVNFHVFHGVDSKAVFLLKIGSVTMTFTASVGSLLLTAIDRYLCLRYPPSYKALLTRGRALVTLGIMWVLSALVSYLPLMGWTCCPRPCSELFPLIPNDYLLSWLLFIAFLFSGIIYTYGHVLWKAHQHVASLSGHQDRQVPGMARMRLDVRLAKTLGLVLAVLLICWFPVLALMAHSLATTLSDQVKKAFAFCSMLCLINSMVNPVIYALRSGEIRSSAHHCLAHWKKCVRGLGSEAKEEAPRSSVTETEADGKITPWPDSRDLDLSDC
Kind of assay: 35S GTPγS binding assay, hCB2 agonist. The assay is classed as biochemical. In a few lines:
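Agonist-stimulated [35S]GTPγS (0.1 nM) binding measured by scintillation proximity after 90 min at room temperature. Reaction buffer: 50 mM HEPES pH 7.4, 100 mM NaCl, 5 mM MgCl2, 0.001% saponin plus 20 uM GDP. Membranes (5 μg) came from transfected cells expressing hCB2 cDNA (pcDNA3.1+ vector).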
A general note: GTPγS is a poorly hydrolysed GTP analogue; its binding reports G protein activation.

The mark [1] stands for this setting: inhibition of forskolin-stimulated cAMP, HEK-293 cells.
[2] abbreviates: inhibition of forskolin-stimulated cAMP, HEK-293 cells, read-out: hCB1 EC50 (cAMP ag).

T1 sequence (P21554 whole entry): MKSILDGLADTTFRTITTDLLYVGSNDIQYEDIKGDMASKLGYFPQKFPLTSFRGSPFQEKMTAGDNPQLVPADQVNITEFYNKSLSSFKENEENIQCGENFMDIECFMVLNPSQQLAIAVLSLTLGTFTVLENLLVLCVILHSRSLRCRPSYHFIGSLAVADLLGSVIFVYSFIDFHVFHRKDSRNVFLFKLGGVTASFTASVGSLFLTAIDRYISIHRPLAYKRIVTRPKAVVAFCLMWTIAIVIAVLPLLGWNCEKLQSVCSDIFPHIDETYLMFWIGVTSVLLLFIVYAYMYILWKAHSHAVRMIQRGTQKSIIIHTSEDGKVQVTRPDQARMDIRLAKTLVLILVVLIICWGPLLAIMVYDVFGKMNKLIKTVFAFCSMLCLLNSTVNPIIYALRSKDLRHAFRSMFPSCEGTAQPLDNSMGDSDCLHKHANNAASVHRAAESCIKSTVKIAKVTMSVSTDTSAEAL
T2 sequence (P34972 whole entry): as the sequence (P34972 whole entry) above

A word on the EC50: it is the midpoint of the concentration-response curve. For the compound `Cc1ccc(C(=O)c2cc3cc(C)n(CCN4CCOCC4)c3s2)cn1` [Compound 130, (5-methyl-6-(2-morpholinoethyl)-6H-thieno[2,3-b]pyrrol-2-yl)(6-methylpyridin-3-yl)methanone], the “hCB1 EC50 (cAMP ag, nM)” value at human CB1 receptors (setting [1]) is “NS (NS means “Not Significant,” which means less than 30% agonist activity when compared to the positive control.)”. In addition, the EC50 at human CB2 receptors and at human CB2 (hCB2) was 100 to 1000 nM each time.

`Cc1cc2cc(C(=O)c3ccc(Cl)cc3)sc2n1CCN1CCOCC1` [Compound 6, (4-Chlorophenyl)(5-methyl-6-(2-morpholinoethyl)-6H-thieno[2,3-b]pyrrol-2-yl)methanone]: the “hCB1 EC50 (cAMP ag, nM)” value on human CB1 receptors (setting [1]) is recorded as “NS (NS means “Not Significant,” which means less than 30% agonist activity when compared to the positive control.)”. In addition, the concentration giving a half-maximal response (EC50) on human CB2 receptors and on human CB2 (hCB2) was under 100 nM each time.

As to `COc1ccc(C(=O)c2cc3cc(C)n(CCC(C)(C)O)c3s2)cc1` [Compound 77, (6-(3-Hydroxy-3-methylbutyl)-5-methyl-6H-thieno[2,3-b]pyrrol-2-yl)(4-methoxyphenyl)methanone], the half-maximal effective concentration (EC50) at human CB1 receptors (setting [2]) fell in the range of 1000 to 10000 nM; at human CB2 receptors, 100 to 1000 nM; on human CB2 (hCB2) it was 100 to 1000 nM.

For `COc1ccc(C(=O)c2cc3c(Cl)c(C)n(CCN4CCOCC4)c3s2)cc1` [Compound 140, (4-chloro-5-methyl-6-(2-morpholinoethyl)-6H-thieno[2,3-b]pyrrol-2-yl)(4-methoxyphenyl)methanone], the “hCB1 EC50 (cAMP ag, nM)” value on human CB1 receptors (setting [1]) is recorded as “NS (NS means “Not Significant,” which means less than 30% agonist activity when compared to the positive control.)”. Also, the EC50 on human CB2 receptors and at human CB2 (hCB2) was under 100 nM each time.

In the case of `Cc1ccc(C(=O)c2cc3cc(C)n(CCN4CCOCC4)c3s2)c(F)c1` [Compound 80, (2-Fluoro-4-methylphenyl)(5-methyl-6-(2-morpholinoethyl)-6H-thieno[2,3-b]pyrrol-2-yl)methanone], the “hCB1 EC50 (cAMP ag, nM)” value at human CB1 receptors (setting [1]) was “NS (NS means “Not Significant,” which means less than 30% agonist activity when compared to the positive control.)”. The EC50 on human CB2 receptors and at human CB2 (hCB2) was under 100 nM in each case.

For `COc1ccc(C(=O)c2cc3cc(C)n(CCN4CCCC4)c3s2)c(Cl)c1` [Compound 93, (2-Chloro-4-methoxyphenyl)(5-methyl-6-(2-(pyrrolidin-1-yl)ethyl)-6H-thieno[2,3-b]pyrrol-2-yl)methanone], the EC50 is 1000 to 10000 nM at human CB1 receptors (setting [2]), under 100 nM on human CB2 receptors and under 100 nM on human CB2 (hCB2).

Turning to `CCOc1ccc(C(=O)c2cc3cc(C)n(CCN4CCOCC4)c3s2)c(F)c1` [Compound 89, (4-Ethoxy-2-fluorophenyl)(5-methyl-6-(2-morpholinoethyl)-6H-thieno[2,3-b]pyrrol-2-yl)methanone], the EC50 at human CB1 receptors (setting [2]) is 1000 to 10000 nM; at human CB2 receptors, under 100 nM; at human CB2 (hCB2), under 100 nM.

On to `Cc1cc2cc(C(=O)c3ccc(N(C)C(=O)OC(C)(C)C)cc3)sc2n1CCN1CCOCC1` [Compound 132, tert-butylmethyl(4-(5-methyl-6-(2-morpholinoethyl)-6H-thieno[2,3-b]pyrrole-2-carbonyl)phenyl)carbamate], for which the “hCB1 EC50 (cAMP ag, nM)” value on human CB1 receptors (setting [1]) was “NS (NS means “Not Significant,” which means less than 30% agonist activity when compared to the positive control.)”. The EC50 at human CB2 receptors and on human CB2 (hCB2) was 100 to 1000 nM throughout.

Take `Cc1cc2cc(C(=O)c3cccc(Cl)c3Cl)sc2n1CCN1CCCCC1` [Compound 23, (2,3-Dichlorophenyl)(5-methyl-6-(2-(piperidin-1-yl)ethyl)-6H-thieno[2,3-b]pyrrol-2-yl)methanone]: the “hCB1 EC50 (cAMP ag, nM)” value at human CB1 receptors (setting [1]) is reported as “NS (NS means “Not Significant,” which means less than 30% agonist activity when compared to the positive control.)”. Moreover, the EC50 at human CB2 receptors and on human CB2 (hCB2) was under 100 nM in each case.

Take `Cc1cc2cc(C(=O)c3ccc4c(c3)OCO4)sc2n1CCN1CCOCC1` [Compound 106, Benzo[d][1,3]dioxol-5-yl(5-methyl-6-(2-morpholinoethyl)-6H-thieno[2,3-b]pyrrol-2-yl)methanone]: at human CB1 receptors (setting [1]), the “hCB1 EC50 (cAMP ag, nM)” value is listed as “NS (NS means “Not Significant,” which means less than 30% agonist activity when compared to the positive control.)”. In addition, the concentration for a half-maximal effect (EC50) at human CB2 receptors and at human CB2 (hCB2) was under 100 nM in each case.

`COc1ccc(C(=O)c2cc3cc(C)n(CC4CCC(F)(F)CC4)c3s2)cn1` [Compound 170, (6-((4,4-difluorocyclohexyl)methyl)-5-methyl-6H-thieno[2,3-b]pyrrol-2-yl)(6-methoxypyridin-3-yl)methanone]: the EC50 at human CB1 receptors (setting [2]), on human CB2 receptors and at human CB2 (hCB2) was under 100 nM in each case.

With `COc1ccc(C(=O)c2cc3cc(C)n(CCCN4CCOCC4)c3s2)cc1` [Compound 107, (4-Methoxyphenyl)(5-methyl-6-(3-morpholinopropyl)-6H-thieno[2,3-b]pyrrol-2-yl)methanone], the EC50 at human CB1 receptors (setting [2]) is 100 to 1000 nM; at human CB2 receptors (inhibition of forskolin-stimulated cAMP, HEK-293 cells, read-out: hCB2 EC50 (cAMP ag)) it was under 100 nM; at human CB2 (hCB2) (GTPγS agonist, HEK-293 membranes, read-out: hCB2 EC50 (GTPyS ag)) it was under 100 nM.

Take `Cc1ccc(C(=O)c2cc3cc(C)n(CCN4CCOCC4)c3s2)cc1` [Compound 124, (5-Methyl-6-(2-morpholinoethyl)-6H-thieno[2,3-b]pyrrol-2-yl)(p-tolyl)methanone]: the EC50 at human CB1 receptors (setting [2]) was 1000 to 10000 nM; at human CB2 receptors, under 100 nM; on human CB2 (hCB2) it was under 100 nM.

As for `COc1ccc(C(=O)c2cc3cc(C)n(CCN4CCOC4=O)c3s2)cc1` [Compound 50, 3-(2-(2-(4-Methoxybenzoyl)-5-methyl-6H-thieno[2,3-b]pyrrol-6-yl)ethyl)oxazolidin-2-one], the “hCB1 EC50 (cAMP ag, nM)” value on human CB1 receptors (setting [1]) is reported as “NS (NS means “Not Significant,” which means less than 30% agonist activity when compared to the positive control.)”. Further, the EC50 on human CB2 receptors was under 100 nM; at human CB2 (hCB2), 1000 to 10000 nM.

As for `COc1ccc(C(=O)c2cc3cc(C)n(CCCNS(C)(=O)=O)c3s2)c(C)c1` [Compound 96, N-(3-(2-(4-Methoxy-2-methylbenzoyl)-5-methyl-6H-thieno[2,3-b]pyrrol-6-yl)propyl)methanesulfonamide], the “hCB1 EC50 (cAMP ag, nM)” value on human CB1 receptors (setting [1]) was “NS (NS means “Not Significant,” which means less than 30% agonist activity when compared to the positive control.)”. For the same compound, the EC50 on human CB2 receptors and on human CB2 (hCB2) was under 100 nM each time.

Take `Cc1cc2cc(C(=O)c3ccccc3N)sc2n1CCN1CCOCC1` [Compound 48, (2-Aminophenyl)(5-methyl-6-(2-morpholinoethyl)-6H-thieno[2,3-b]pyrrol-2-yl)methanone]: the EC50 on human CB1 receptors (setting [2]) was 1000 to 10000 nM; at human CB2 receptors, under 100 nM; on human CB2 (hCB2), under 100 nM.

For `CCN(CC)CCn1c(C)cc2cc(C(=O)c3ccc(OC)nc3)sc21` [Compound 142, (6-(2-(diethylamino)ethyl)-5-methyl-6H-thieno[2,3-b]pyrrol-2-yl)(6-methoxypyridin-3-yl)methanone], the “hCB1 EC50 (cAMP ag, nM)” value on human CB1 receptors (setting [1]) is listed as “NS (NS means “Not Significant,” which means less than 30% agonist activity when compared to the positive control.)”. The EC50 on human CB2 receptors and on human CB2 (hCB2) was 100 to 1000 nM in each case.

As for `COc1ccc(C(=O)c2cc3cc(C)n(CCN4CCOCC4)c3s2)cc1` [Compound 36, (4-methoxyphenyl)(5-methyl-6-(2-morpholinoethyl)-6H-thieno[2,3-b]pyrrol-2-yl)methanone], the EC50 on human CB1 receptors was 1000 to 10000 nM; at human CB2 receptors, under 100 nM; on human CB2 (hCB2) it was under 100 nM.
